ChEMBL document CHEMBL1201861, “Genomics of Drug Sensitity in Cancer screening data, Wellcome Trust Sanger Institute”

tested on: COLO-800; experiment: cells; format: functional, cell-based, Homo sapiens; conditions: Homo sapiens, COLO-800;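 also: growth inhibition of COLO-800 cells, read out with a cell viability assay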
Description: SANGER: Inhibition of human COLO-800 cell growth in a cell viability assay.

Structure (SMILES)	IC50
OC[C@H](Cc1ccccc1)Nc1nc(Oc2ccc3c(c2)CCC3)nc2c1ncn2Cc1ccc(-c2ccccc2)cc1	> 10.2 µM

tested on: COLO-829; experiment: cells; format: functional, cell-based, Homo sapiens; conditions: Homo sapiens, COLO-829
Description: SANGER: Inhibition of human COLO-829 cell growth in a cell viability assay.

Structure (SMILES)	IC50
OC[C@H](Cc1ccccc1)Nc1nc(Oc2ccc3c(c2)CCC3)nc2c1ncn2Cc1ccc(-c2ccccc2)cc1	> 10.2 µM

tested on: CTV-1; experiment: cells; format: functional, cell-based, Homo sapiens; conditions: Homo sapiens, CTV-1;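 also: growth inhibition of the cell line, read out with a cell viability assay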
Description: SANGER: Inhibition of human CTV-1 cell growth in a cell viability assay.

Structure (SMILES)	IC50
OC[C@H](Cc1ccccc1)Nc1nc(Oc2ccc3c(c2)CCC3)nc2c1ncn2Cc1ccc(-c2ccccc2)cc1	> 10.2 µM

tested on: CW-2; experiment: cells; format: functional, cell-based, Homo sapiens; conditions: Homo sapiens, CW-2;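 also: growth inhibition of CW-2 cells, read out by a cell viability assay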
Description: SANGER: Inhibition of human CW-2 cell growth in a cell viability assay.

Structure (SMILES)	IC50
OC[C@H](Cc1ccccc1)Nc1nc(Oc2ccc3c(c2)CCC3)nc2c1ncn2Cc1ccc(-c2ccccc2)cc1	> 10.2 µM

tested on: D283 Med; experiment: cells; format: functional, cell-based, Homo sapiens; conditions: Homo sapiens, D283 Med
Description: SANGER: Inhibition of human D-283MED cell growth in a cell viability assay.

Structure (SMILES)	IC50
OC[C@H](Cc1ccccc1)Nc1nc(Oc2ccc3c(c2)CCC3)nc2c1ncn2Cc1ccc(-c2ccccc2)cc1	> 10.2 µM

tested on: EKVX; experiment: cells; format: functional, cell-based, Homo sapiens; conditions: Homo sapiens, EKVX;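 also: growth inhibition of human EKVX cells, read out with a cell viability assay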
Description: SANGER: Inhibition of human EKVX cell growth in a cell viability assay.

Structure (SMILES)	IC50
OC[C@H](Cc1ccccc1)Nc1nc(Oc2ccc3c(c2)CCC3)nc2c1ncn2Cc1ccc(-c2ccccc2)cc1	> 10.2 µM

tested on: ES7; experiment: cells; format: functional, cell-based, Homo sapiens; conditions: Homo sapiens, ES7;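 also: growth inhibition of cultured human ES7 cells, read out as cell viability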
Description: SANGER: Inhibition of human ES7 cell growth in a cell viability assay.

Structure (SMILES)	IC50
OC[C@H](Cc1ccccc1)Nc1nc(Oc2ccc3c(c2)CCC3)nc2c1ncn2Cc1ccc(-c2ccccc2)cc1	> 10.2 µM

tested on: ETK-1; experiment: cells; format: functional, cell-based, Homo sapiens; conditions: Homo sapiens, ETK-1;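 also: growth inhibition of human ETK-1 cells, read out with a cell viability assay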
Description: SANGER: Inhibition of human ETK-1 cell growth in a cell viability assay.

Structure (SMILES)	IC50
OC[C@H](Cc1ccccc1)Nc1nc(Oc2ccc3c(c2)CCC3)nc2c1ncn2Cc1ccc(-c2ccccc2)cc1	> 10.2 µM

tested on: EW-18; experiment: cells; format: functional, cell-based, Homo sapiens; conditions: Homo sapiens, EW-18; read-out: IC50;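 also: growth inhibition of EW-18 cells, read out by a cell viability assay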
Description: SANGER: Inhibition of human EW-18 cell growth in a cell viability assay.

Structure (SMILES)	IC50
OC[C@H](Cc1ccccc1)Nc1nc(Oc2ccc3c(c2)CCC3)nc2c1ncn2Cc1ccc(-c2ccccc2)cc1	> 10.2 µM

tested on: EOL1; experiment: cells; format: functional, cell-based, Homo sapiens; conditions: Homo sapiens, EOL1;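 also: growth inhibition of EoL-1 cells, read out by a cell viability assay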
Description: SANGER: Inhibition of human EoL-1-cell cell growth in a cell viability assay.

Structure (SMILES)	IC50
OC[C@H](Cc1ccccc1)Nc1nc(Oc2ccc3c(c2)CCC3)nc2c1ncn2Cc1ccc(-c2ccccc2)cc1	1.88 µM

tested on: GCIY; experiment: cells; format: functional, cell-based, Homo sapiens; conditions: Homo sapiens, GCIY;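 also: growth inhibition of the human GCIY cell line, read out by a cell viability assay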
Description: SANGER: Inhibition of human GCIY cell growth in a cell viability assay.

Structure (SMILES)	IC50
OC[C@H](Cc1ccccc1)Nc1nc(Oc2ccc3c(c2)CCC3)nc2c1ncn2Cc1ccc(-c2ccccc2)cc1	> 10.2 µM

tested on: HAL-01; experiment: cells; format: functional, cell-based, Homo sapiens; conditions: Homo sapiens, HAL-01;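 also: growth inhibition of human HAL-01 cells, read out with a cell viability assay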
Description: SANGER: Inhibition of human HAL-01 cell growth in a cell viability assay.

Structure (SMILES)	IC50
OC[C@H](Cc1ccccc1)Nc1nc(Oc2ccc3c(c2)CCC3)nc2c1ncn2Cc1ccc(-c2ccccc2)cc1	9.16 µM

tested on: HCC1187; experiment: cells; format: functional, cell-based, Homo sapiens; conditions: Homo sapiens, HCC1187;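 also: growth inhibition of HCC1187 cells, read out with a cell viability assay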
Description: SANGER: Inhibition of human HCC1187 cell growth in a cell viability assay.

Structure (SMILES)	IC50
OC[C@H](Cc1ccccc1)Nc1nc(Oc2ccc3c(c2)CCC3)nc2c1ncn2Cc1ccc(-c2ccccc2)cc1	> 10.2 µM

tested on: HCC2218; experiment: cells; format: functional, cell-based, Homo sapiens; conditions: Homo sapiens, HCC2218;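 also: cell viability assay read-out, with IC50 given as the concentration that inhibits growth of the cell line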
Description: SANGER: Inhibition of human HCC2218 cell growth in a cell viability assay.

Structure (SMILES)	IC50
OC[C@H](Cc1ccccc1)Nc1nc(Oc2ccc3c(c2)CCC3)nc2c1ncn2Cc1ccc(-c2ccccc2)cc1	> 10.2 µM

tested on: HEL; experiment: cells; format: functional, cell-based, Homo sapiens; conditions: Homo sapiens, HEL;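 also: growth inhibition of HEL cells, read out with a cell viability assay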
Description: SANGER: Inhibition of human HEL cell growth in a cell viability assay.

Structure (SMILES)	IC50
OC[C@H](Cc1ccccc1)Nc1nc(Oc2ccc3c(c2)CCC3)nc2c1ncn2Cc1ccc(-c2ccccc2)cc1	3.28 µM

tested on: K562; experiment: cells; format: functional, cell-based, Homo sapiens; conditions: Homo sapiens, K562
Description: SANGER: Inhibition of human K-562 cell growth in a cell viability assay.

Structure (SMILES)	IC50
OC[C@H](Cc1ccccc1)Nc1nc(Oc2ccc3c(c2)CCC3)nc2c1ncn2Cc1ccc(-c2ccccc2)cc1	> 10.2 µM

tested on: KINGS-1; experiment: cells; format: functional, cell-based, Homo sapiens; conditions: Homo sapiens, KINGS-1;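 also: cell viability assay measuring suppression of KINGS-1 cell growth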
Description: SANGER: Inhibition of human KINGS-1 cell growth in a cell viability assay.

Structure (SMILES)	IC50
OC[C@H](Cc1ccccc1)Nc1nc(Oc2ccc3c(c2)CCC3)nc2c1ncn2Cc1ccc(-c2ccccc2)cc1	> 10.2 µM

tested on: KNS-42; experiment: cells; format: functional, cell-based; conditions: Homo sapiens;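 also: growth inhibition of KNS-42 cells, read out with a cell viability assay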
Description: SANGER: Inhibition of human KNS-42 cell growth in a cell viability assay.

Structure (SMILES)	IC50
OC[C@H](Cc1ccccc1)Nc1nc(Oc2ccc3c(c2)CCC3)nc2c1ncn2Cc1ccc(-c2ccccc2)cc1	> 10.2 µM

tested on: LB1047-RCC; experiment: cells; format: functional, cell-based, Homo sapiens; conditions: Homo sapiens, LB1047-RCC;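 also: inhibition of cell growth, determined with a cell viability assay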
Description: SANGER: Inhibition of human LB1047-RCC cell growth in a cell viability assay.

Structure (SMILES)	IC50
OC[C@H](Cc1ccccc1)Nc1nc(Oc2ccc3c(c2)CCC3)nc2c1ncn2Cc1ccc(-c2ccccc2)cc1	> 10.2 µM

tested on: LNCaP-Clone-FGC; experiment: cells; format: functional, cell-based, Homo sapiens; conditions: Homo sapiens, LNCaP-Clone-FGC
Description: SANGER: Inhibition of human LNCaP-Clone-FGC cell growth in a cell viability assay.

Structure (SMILES)	IC50
OC[C@H](Cc1ccccc1)Nc1nc(Oc2ccc3c(c2)CCC3)nc2c1ncn2Cc1ccc(-c2ccccc2)cc1	> 10.2 µM

tested on: LU-139; experiment: cells; format: functional, cell-based, Homo sapiens; conditions: Homo sapiens, LU-139
Description: SANGER: Inhibition of human LU-139 cell growth in a cell viability assay.

Structure (SMILES)	IC50
OC[C@H](Cc1ccccc1)Nc1nc(Oc2ccc3c(c2)CCC3)nc2c1ncn2Cc1ccc(-c2ccccc2)cc1	> 10.2 µM

tested on: MFM-223; experiment: cells; format: functional, cell-based, Homo sapiens; conditions: Homo sapiens, MFM-223
Description: SANGER: Inhibition of human MFM-223 cell growth in a cell viability assay.

Structure (SMILES)	IC50
OC[C@H](Cc1ccccc1)Nc1nc(Oc2ccc3c(c2)CCC3)nc2c1ncn2Cc1ccc(-c2ccccc2)cc1	> 10.2 µM

tested on: MSTO-211H; experiment: cells; format: functional, cell-based, Homo sapiens; conditions: Homo sapiens, MSTO-211H
Description: SANGER: Inhibition of human MSTO-211H cell growth in a cell viability assay.

Structure (SMILES)	IC50
OC[C@H](Cc1ccccc1)Nc1nc(Oc2ccc3c(c2)CCC3)nc2c1ncn2Cc1ccc(-c2ccccc2)cc1	> 10.2 µM

tested on: NB10; experiment: cells; format: functional, cell-based, Homo sapiens; conditions: Homo sapiens, NB10;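 also: growth inhibition of NB10 cells, read out by a cell viability assay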
Description: SANGER: Inhibition of human NB10 cell growth in a cell viability assay.

Structure (SMILES)	IC50
OC[C@H](Cc1ccccc1)Nc1nc(Oc2ccc3c(c2)CCC3)nc2c1ncn2Cc1ccc(-c2ccccc2)cc1	> 10.2 µM

tested on: NCI-H1355; experiment: cells; format: functional, cell-based, Homo sapiens; conditions: Homo sapiens, NCI-H1355;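 also: growth inhibition of human NCI-H1355 cells, read out by a cell viability assay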
Description: SANGER: Inhibition of human NCI-H1355 cell growth in a cell viability assay.

Structure (SMILES)	IC50
OC[C@H](Cc1ccccc1)Nc1nc(Oc2ccc3c(c2)CCC3)nc2c1ncn2Cc1ccc(-c2ccccc2)cc1	> 10.2 µM

tested on: NCI-H1838; experiment: cells; format: functional, cell-based, Homo sapiens; conditions: Homo sapiens, NCI-H1838;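 also: growth inhibition of NCI-H1838 cells, determined with a cell viability readout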
Description: SANGER: Inhibition of human NCI-H1838 cell growth in a cell viability assay.

Structure (SMILES)	IC50
OC[C@H](Cc1ccccc1)Nc1nc(Oc2ccc3c(c2)CCC3)nc2c1ncn2Cc1ccc(-c2ccccc2)cc1	> 10.2 µM

tested on: NCI-H69; experiment: cells; format: functional, cell-based, Homo sapiens; conditions: Homo sapiens, NCI-H69;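 also: growth inhibition of the cell line, read out with a cell viability assay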
Description: SANGER: Inhibition of human NCI-H69 cell growth in a cell viability assay.

Structure (SMILES)	IC50
OC[C@H](Cc1ccccc1)Nc1nc(Oc2ccc3c(c2)CCC3)nc2c1ncn2Cc1ccc(-c2ccccc2)cc1	> 10.2 µM

tested on: NEC8; experiment: cells; format: functional, cell-based, Homo sapiens; conditions: Homo sapiens, NEC8;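 also: growth inhibition of human NEC8 cells, read out by a cell viability assay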
Description: SANGER: Inhibition of human NEC8 cell growth in a cell viability assay.

Structure (SMILES)	IC50
OC[C@H](Cc1ccccc1)Nc1nc(Oc2ccc3c(c2)CCC3)nc2c1ncn2Cc1ccc(-c2ccccc2)cc1	> 10.2 µM

tested on: NOMO-1; experiment: cells; format: functional, cell-based, Homo sapiens; conditions: Homo sapiens, NOMO-1;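 also: growth inhibition of human NOMO-1 cells measured by a cell viability assay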
Description: SANGER: Inhibition of human NOMO-1 cell growth in a cell viability assay.

Structure (SMILES)	IC50
OC[C@H](Cc1ccccc1)Nc1nc(Oc2ccc3c(c2)CCC3)nc2c1ncn2Cc1ccc(-c2ccccc2)cc1	> 10.2 µM

tested on: P30-OHK; experiment: cells; format: functional, cell-based, Homo sapiens; conditions: Homo sapiens, P30-OHK;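 also: growth inhibition of the P30-OHK cell line, read out with a cell viability assay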
Description: SANGER: Inhibition of human P30-OHK cell growth in a cell viability assay.

Structure (SMILES)	IC50
OC[C@H](Cc1ccccc1)Nc1nc(Oc2ccc3c(c2)CCC3)nc2c1ncn2Cc1ccc(-c2ccccc2)cc1	3.56 µM

tested on: QIMR-WIL; experiment: cells; format: functional, cell-based, Homo sapiens; conditions: Homo sapiens, QIMR-WIL;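 also: growth inhibition of QIMR-WIL cells, read out with a cell viability assay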
Description: SANGER: Inhibition of human QIMR-WIL cell growth in a cell viability assay.

Structure (SMILES)	IC50
OC[C@H](Cc1ccccc1)Nc1nc(Oc2ccc3c(c2)CCC3)nc2c1ncn2Cc1ccc(-c2ccccc2)cc1	6.65 µM

tested on: RH-1; experiment: cells; format: functional, cell-based, Homo sapiens; conditions: Homo sapiens, RH-1;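 also: growth inhibition of human RH-1 cells, read out with a cell viability assay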
Description: SANGER: Inhibition of human RH-1 cell growth in a cell viability assay.

Structure (SMILES)	IC50
OC[C@H](Cc1ccccc1)Nc1nc(Oc2ccc3c(c2)CCC3)nc2c1ncn2Cc1ccc(-c2ccccc2)cc1	5.29 µM

tested on: RPMI-8226; experiment: cells; format: functional, cell-based, Homo sapiens; conditions: Homo sapiens, RPMI-8226
Description: SANGER: Inhibition of human RPMI-8226 cell growth in a cell viability assay.

Structure (SMILES)	IC50
OC[C@H](Cc1ccccc1)Nc1nc(Oc2ccc3c(c2)CCC3)nc2c1ncn2Cc1ccc(-c2ccccc2)cc1	> 10.2 µM

tested on: SCH; experiment: cells; format: functional, cell-based, Homo sapiens; conditions: Homo sapiens, SCH;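 also: growth inhibition of human SCH cells, read out in a cell viability assay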
Description: SANGER: Inhibition of human SCH cell growth in a cell viability assay.

Structure (SMILES)	IC50
OC[C@H](Cc1ccccc1)Nc1nc(Oc2ccc3c(c2)CCC3)nc2c1ncn2Cc1ccc(-c2ccccc2)cc1	> 10.2 µM

tested on: SF-268; experiment: cells; format: functional, cell-based, Homo sapiens; conditions: Homo sapiens, SF-268;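 also: growth inhibition of SF-268 cells determined with a cell viability assay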
Description: SANGER: Inhibition of human SF268 cell growth in a cell viability assay.

Structure (SMILES)	IC50
OC[C@H](Cc1ccccc1)Nc1nc(Oc2ccc3c(c2)CCC3)nc2c1ncn2Cc1ccc(-c2ccccc2)cc1	> 10.2 µM

tested on: SK-N-DZ; experiment: cells; format: functional, cell-based, Homo sapiens; conditions: Homo sapiens, SK-N-DZ; read-out: IC50;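 also: growth inhibition of the cancer cell line, read out through a viability assay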
Description: SANGER: Inhibition of human SK-N-DZ cell growth in a cell viability assay.

Structure (SMILES)	IC50
OC[C@H](Cc1ccccc1)Nc1nc(Oc2ccc3c(c2)CCC3)nc2c1ncn2Cc1ccc(-c2ccccc2)cc1	2.23 µM

tested on: SK-NEP-1; experiment: cells; format: functional, cell-based, Homo sapiens; conditions: Homo sapiens, SK-NEP-1;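 also: growth inhibition of human SK-NEP-1 cells, read out by a cell viability assay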
Description: SANGER: Inhibition of human SK-NEP-1 cell growth in a cell viability assay.

Structure (SMILES)	IC50
OC[C@H](Cc1ccccc1)Nc1nc(Oc2ccc3c(c2)CCC3)nc2c1ncn2Cc1ccc(-c2ccccc2)cc1	> 10.2 µM

tested on: SW872; experiment: cells; format: functional, cell-based, Homo sapiens; conditions: Homo sapiens, SW872;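 also: growth inhibition of SW872 cells, read out by a viability assay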
Description: SANGER: Inhibition of human SW872 cell growth in a cell viability assay.

Structure (SMILES)	IC50
OC[C@H](Cc1ccccc1)Nc1nc(Oc2ccc3c(c2)CCC3)nc2c1ncn2Cc1ccc(-c2ccccc2)cc1	10.2 µM

tested on: A101D; experiment: cells; format: functional, cell-based, Homo sapiens; conditions: Homo sapiens, A101D;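 also: growth inhibition of the cell line, measured with a viability assay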
Description: SANGER: Inhibition of human A101D cell growth in a cell viability assay.

Structure (SMILES)	IC50
OC[C@H](Cc1ccccc1)Nc1nc(Oc2ccc3c(c2)CCC3)nc2c1ncn2Cc1ccc(-c2ccccc2)cc1	> 10.2 µM

tested on: A4-Fuk; experiment: cells; format: functional, cell-based, Homo sapiens; conditions: Homo sapiens, A4-Fuk;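 also: growth inhibition of A4-Fuk cells, read out by a cell viability assay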
Description: SANGER: Inhibition of human A4-Fuk cell growth in a cell viability assay.

Structure (SMILES)	IC50
OC[C@H](Cc1ccccc1)Nc1nc(Oc2ccc3c(c2)CCC3)nc2c1ncn2Cc1ccc(-c2ccccc2)cc1	> 10.2 µM

tested on: ATN-1; experiment: cells; format: functional, cell-based, Homo sapiens; conditions: Homo sapiens, ATN-1;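 also: growth inhibition of human ATN-1 cells, read out with a cell viability assay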
Description: SANGER: Inhibition of human ATN-1 cell growth in a cell viability assay.

Structure (SMILES)	IC50
OC[C@H](Cc1ccccc1)Nc1nc(Oc2ccc3c(c2)CCC3)nc2c1ncn2Cc1ccc(-c2ccccc2)cc1	> 10.2 µM

tested on: BV-173; experiment: cells; format: functional, cell-based, Homo sapiens; conditions: Homo sapiens, BV-173
Description: SANGER: Inhibition of human BV-173 cell growth in a cell viability assay.

Structure (SMILES)	IC50
OC[C@H](Cc1ccccc1)Nc1nc(Oc2ccc3c(c2)CCC3)nc2c1ncn2Cc1ccc(-c2ccccc2)cc1	> 10.2 µM

tested on: TE-12; experiment: cells; format: functional, cell-based, Homo sapiens; conditions: Homo sapiens, TE-12;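 also: growth inhibition of TE-12 cells, read out by a cell viability assay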
Description: SANGER: Inhibition of human TE-12 cell growth in a cell viability assay.

Structure (SMILES)	IC50
OC[C@H](Cc1ccccc1)Nc1nc(Oc2ccc3c(c2)CCC3)nc2c1ncn2Cc1ccc(-c2ccccc2)cc1	> 10.2 µM

tested on: TE-8; experiment: cells; format: functional, cell-based, Homo sapiens; conditions: Homo sapiens, TE-8;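 also: growth inhibition of TE-8 cells, measured with a cell viability readout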
Description: SANGER: Inhibition of human TE-8 cell growth in a cell viability assay.

Structure (SMILES)	IC50
OC[C@H](Cc1ccccc1)Nc1nc(Oc2ccc3c(c2)CCC3)nc2c1ncn2Cc1ccc(-c2ccccc2)cc1	3.17 µM

tested on: U-87 MG; experiment: cells; format: functional, cell-based, Homo sapiens, U-87MG ATCC; conditions: Homo sapiens, U-87 MG;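 also: growth inhibition of the cells measured with a viability assay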
Description: SANGER: Inhibition of human U-87-MG cell growth in a cell viability assay.

Structure (SMILES)	IC50
OC[C@H](Cc1ccccc1)Nc1nc(Oc2ccc3c(c2)CCC3)nc2c1ncn2Cc1ccc(-c2ccccc2)cc1	> 10.2 µM

tested on: CAS-1; experiment: cells; format: functional, cell-based, Homo sapiens; conditions: Homo sapiens, CAS-1;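 also: growth inhibition of CAS-1 cells, measured with a cell viability assay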
Description: SANGER: Inhibition of human CAS-1 cell growth in a cell viability assay.

Structure (SMILES)	IC50
OC[C@H](Cc1ccccc1)Nc1nc(Oc2ccc3c(c2)CCC3)nc2c1ncn2Cc1ccc(-c2ccccc2)cc1	> 10.2 µM

tested on: COLO-320-HSR; experiment: cells; format: functional, cell-based, Homo sapiens; conditions: Homo sapiens, COLO-320-HSR;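 also: growth inhibition of COLO-320-HSR cells, determined with a cell viability assay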
Description: SANGER: Inhibition of human COLO-320-HSR cell growth in a cell viability assay.

Structure (SMILES)	IC50
OC[C@H](Cc1ccccc1)Nc1nc(Oc2ccc3c(c2)CCC3)nc2c1ncn2Cc1ccc(-c2ccccc2)cc1	> 10.2 µM

tested on: COLO-668; experiment: cells; format: functional, cell-based, Homo sapiens; conditions: Homo sapiens, COLO-668
Description: SANGER: Inhibition of human COLO-668 cell growth in a cell viability assay.

Structure (SMILES)	IC50
OC[C@H](Cc1ccccc1)Nc1nc(Oc2ccc3c(c2)CCC3)nc2c1ncn2Cc1ccc(-c2ccccc2)cc1	> 10.2 µM
